Assay results from ChEMBL document CHEMBL1201862, “PubChem BioAssay data set” (2004).
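Interpolation was linear, between the two tested concentrations surrounding the appropriate level; five concentrations were tested over 48 hours in 96-well plates. GI50: concentration for 50% inhibition of growth.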 Activity calls are given as the source filed them. No stated cut-off is given here; in the data, active = GI50 up to about 1.1 µM and inactive = higher.

Key:
Test in all cases: NCI anticancer screen, dose series, 48 h
A498 = system: A498
A549 = system: A549
ACHN = system: ACHN
CCRF-CEM = system: CCRF-CEM
EKVX = system: EKVX
HCT-15 = system: HCT-15
Hs-578T = system: Hs-578T
IGROV-1 = system: IGROV-1
MCF7 = system: MCF7
MDA-MB-231 = system: MDA-MB-231
NCI-H23 = system: NCI-H23
NCI-H460 = system: NCI-H460
NCI-H522 = system: NCI-H522
OVCAR-3 = system: OVCAR-3
OVCAR-5 = system: OVCAR-5
SF-295 = system: SF-295
SF-539 = system: SF-539
SNB-75 = system: SNB-75
SW-620 = system: SW-620
TK-10 = system: TK-10

| Structure (SMILES) | GI50 (A498) | GI50 (A549) | GI50 (ACHN) | GI50 (CCRF-CEM) | GI50 (EKVX) | GI50 (HCT-15) | GI50 (Hs-578T) | GI50 (IGROV-1) | GI50 (MCF7) | GI50 (MDA-MB-231) | GI50 (NCI-H23) | GI50 (NCI-H460) | GI50 (NCI-H522) | GI50 (OVCAR-3) | GI50 (OVCAR-5) | GI50 (SF-295) | GI50 (SF-539) | GI50 (SNB-75) | GI50 (SW-620) | GI50 (TK-10) |
| --- | --- | --- | --- | --- | --- | --- | --- | --- | --- | --- | --- | --- | --- | --- | --- | --- | --- | --- | --- | --- |
| CCCCn1c(-c2ccc([N+](=O)[O-])cc2)cs/c1=N/N=C1\C(=O)Nc2ccc(Br)cc21 | 17.4 µM (inactive) | 15.9 µM (inactive) | 12.9 µM (inactive) | 17.8 µM (inactive) | 24.7 µM (inactive) | 21.9 µM | 43.2 µM (inactive) | 19.1 µM (inactive) | 3.28 µM (inactive) | 15.7 µM (inactive) | 16.6 µM (inactive) | 14.6 µM (inactive) | 14.2 µM (inactive) | 15.5 µM (inactive) | 30.5 µM (inactive) | 22.9 µM (inactive) | 14 µM (inactive) | 20.3 µM (inactive) | 39.6 µM (inactive) | 12.3 µM (inactive) |
| COc1cc(C(O)CCBr)c(OC)cc1C (stereo not given) | > 64.6 µM (inactive) | > 100 µM (inactive) | 35.7 µM (inactive) | 3.07 µM (inactive) | > 100 µM (inactive) | 7.4 µM | 25.1 µM (inactive) | 24.4 µM (inactive) | 4.37 µM (inactive) | 21.2 µM (inactive) | 14.3 µM (inactive) | 30.5 µM (inactive) | 27.5 µM (inactive) | 13.4 µM (inactive) | > 47.1 µM (inactive) | 36 µM (inactive) | 8.17 µM (inactive) | 30.1 µM (inactive) | 3.13 µM (inactive) | > 66.8 µM (inactive) |
| C=C(NC(=O)C(=C)NC(=O)c1csc(C2=NC3c4csc(n4)C4NC(=O)c5csc(n5)C(C(C)(O)C(C)O)NC(=O)C5CSC(=N5)/C(=C/C)NC(=O)C(C(C)O)NC(=O)c5csc(n5)C3(CC2)NC(=O)C(C)NC(=O)C(=C)NC(=O)C(=C)NC(=O)C(C(C)C)NC2C=Cc3c(C(C)O)cc(nc3C2O)C(=O)OC4C)n1)C(N)=O (stereo not given) | 2.29 µM (inactive) | 5.42 µM (inactive) | 2.59 µM (inactive) | 0.25 µM (active) | 3.92 µM (inactive) | 9.25 µM | 12.3 µM (inactive) | 7.28 µM (inactive) | 1.33 µM (inactive) | 0.815 µM (active) | 7.13 µM (inactive) | 4.7 µM (inactive) | 0.158 µM (active) | 10.3 µM (inactive) | 4.09 µM (inactive) | 26 µM (inactive) | 0.34 µM (active) | > 30.2 µM (inactive) | 0.673 µM (active) | 4.18 µM (inactive) |
